In patent publication US20090048461A1, “Regulators of Bacterial Signalling Pathways” (Biosignal Limited, priority 2004, published 2009):

What was measured:
[1] = system: two-component signal transduction systems (Taz system); assay: Taz-1 assay (two-component signal transduction, beta-galactosidase activity); type: cell-based, E. coli RU1012 (pYT0301); conditions: for reduction of beta-galactosidase activity: 3 mM aspartate, 4 hours; for inhibition of two-component signal transduction systems: no concentration stated
Method: The Taz-assay carried out according to the method of Jin and Inouyc (1993) with the following alterations. E. coli RU1012 (pYT0301) were grown overnight in M9 medium at 37° C. supplemented with 100 ug/ml ampicillin and 50 ug/ml kanamycin. This overnight culture was then used to inoculate 50 ml M9 medium in side-arm flasks which were then incubated at 37° C. and shaken at 180 rpm. The OD610 of the growing cultures was monitored regularly and when the OD610=0.2 the cultures were placed on ice […] to give a final concentration of 3 mM (aspartate stock solution made up in M9 salts).
The test compound or mixtures of compounds were dissolved in ethanol and added to cultures to give the required final concentrations. Negative controls were prepared with equal volumes of ethanol. Cultures were then placed in a 37° C. incubator and shaken for 4 hours (OD610 approximately 0.7) before being removed and put on ice. Samples were then removed for beta-galactosidase assays carried out according to the method of Miller (1972). Aspartate (the natural inducer of the Taz system) was used as a positive control at a concentration of 3 mmolar.

[2] = system: V. harveyi reporter strain BB170 Al-2 bioluminescence; assay: V. harveyi bioassay for the detection of Al-2 activity (bioluminescence); type: cell-based, Vibrio harveyi; conditions: concentration of 50 ug/ml
Method: The V. harveyi bioassay was performed as described previously (Surette and Bassler, 1998). The V. harveyi reporter strain BB170 was grown for 16 hours at 30° C. with shaking in AB medium. Cells were diluted 1:5,000 into 30° C. prewarmed AB medium and 90 ul of the diluted suspension was added to wells containing supernatant. Compounds to be tested were added to the wells to achieve the desired final concentrations and the final volume in each well was adjusted with sterile medium to 100 ul. Ten ul of V. harveyi BB152 (Al-1−, Al-2+) supernatant was used as a positive control and 10 ul of E. coli DH5α supernatant or sterile media was used as a negative control. […] The microtiter plates were incubated at 30° C. with shaking at 175 rpm. Hourly determinations of the total luminescence were quantified using the chemiluminescent setting on a Wallac (Gaithersburg, Md.) model 1450 Microbeta Plus liquid scintillation counter. The V. harveyi cell density was monitored by the use of a microplate reader (Bio-Rad, Hercules, Calif.). Activity is reported as the percentage of activity obtained from V. harveyi BB152 cell-free supernatant. While the absolute values of luminescence varied considerably between experiments, the pattern of results obtained was reproducible.

[3] = system: Pseudomonas aeruginosa (PA01 DO); assay: Attachment of Pseudomonas aeruginosa (PA01 DO), crystal violet, microtiter plate; type: cell-based; conditions: no concentration stated
Method: The experiments were performed in 96 wells microtiter plates using a volume of 200 μl. The growth medium was M9 and the plates were incubated at 37° C. One % of overnight inoculum was used and the concentrations of the compounds to be tested were 25 and 50 μg/ml. The attachment of the cells were monitored at the endpoint of the experiment which was after 24 hrs. The cells were stained with crystal violet and the absorbance was measured at 595 nm. Reduction in attachment was measured against the control (PAO1 Do ETO ) set at 100%.

Staphylococcus aureus = assay: Growth of Staphylococcus aureus in sidearm flasks (absorbance 610 nm); type: cell-based
Method: Compounds 122 and 123 were tested against growth of Staphylococcus aureus. The experiments were performed in sidearm flasks and the growth was measured at 610 nm for 12 hours. Hundred μl of an overnight culture was added to 10 ml of growth medium. Nutrient Broth, containing furanones at concentrations 10 and 25 μg/ml. The bacteria were incubated at 37° C.

Pseudomonas aeruginosa [4] = assay: Attachment of Pseudomonas aeruginosa (Example 10); type: cell-based; conditions: 50 μg/ml; 1:9 dilution of TBY medium, 6 hrs
Method: (§1) The experiments were performed in 96 well microtiter plates using a volume of 100 μl. The growth medium was BHI and the plates were incubated at 37° C. One % of overnight inoculum was used and the concentration of the compound to be tested was 50 μg/ml. Both growth and attachment of the cells were monitored at the end point of the experiments which was and after 24 hrs with P. canoris. The cells were stained with crystal violet and the absorbance was measured at 595 nm.
(§2) As Example 9, but the used medium was a 1:9 dilution of TBY medium and the incubation time was 6 hrs.

Pseudomonas aeruginosa [5] = assay: Growth of Pseudomonas aeruginosa (Example 10); type: cell-based; conditions: 50 μg/ml; 1:9 dilution of TBY medium, 6 hrs
Method: as §1, §2

Porphyromonas canoris [6] = assay: Attachment of Porphyromonas canoris (Example 9); type: cell-based; conditions: 50 μg/ml; BHI, 24 hrs
Method: as §1

Porphyromonas canoris [7] = assay: Growth of Porphyromonas canoris (Example 9); type: cell-based; conditions: 50 μg/ml; BHI, 24 hrs
Method: as §1

[8] = 25 μg/ml, Nutrient Broth, 37° C., 12 hours

SMILES: CC(=O)/C(C)=C/Br [Compound 80, 3-(Bromomethylene)-2-Butanone]
- reduction of beta-galactosidase activity ([1]; concentration of 50 ug/ml): 75%
- inhibition of two-component signal transduction systems [1]: act as inhibitors

SMILES: CCCCC(=CBr)C(C)=O [Compound 101, 3-(Bromomethylene)-2-Heptanone]
- effect on bioluminescence activity [2]: significant increase

SMILES: CCC/C(=C\Br)C(C)=O [Compound 122, 3-(Bromomethylene)-2-Hexanone]
- effect on attachment [3]: reduce the attachment
- effect on bioluminescence activity [2]: significant increase
- growth inhibition (Staphylococcus aureus; [8]): slight growth inhibition

SMILES: CCC(=O)/C(C)=C/Br [Compound 123, 2-(Bromomethylene)-3-Pentanone]
- reduction of beta-galactosidase activity ([1]; concentration of 25ug/ml): 40%
- inhibition of two-component signal transduction systems [1]: act as inhibitors
- effect on attachment to a surface (Pseudomonas aeruginosa [4]): significantly limits
- effect on attachment [3]: reduce the attachment
- effect on growth (Pseudomonas aeruginosa [5]): relatively insignificant effect
- effect on bioluminescence activity [2]: significant increase
- effect on attachment to a surface (Porphyromonas canoris [6]): significantly limits
- growth inhibition (Staphylococcus aureus; 10 μg/ml, Nutrient Broth, 37° C., 12 hours): slight growth inhibition
- prolonged lagphase of growth (Staphylococcus aureus; [8]): 4 h
- growth inhibition compared to 122 (Staphylococcus aureus; concentrations 10 and 25 μg/ml): more growth inhibitory
- effect on growth (Porphyromonas canoris [7]): relatively insignificant effect
